# Values quoted from earlier work in patent publication US6369001B1, “Microemulsion coformulation of a graminicide and a water-soluble herbicide” (Monsanto Technology, LLC, priority 1999, dated 2002).
# “Also recorded” adds a separate entry of the source.
# Settings: aqueous medium
row,SMILES,pH dependence of chemical stability / hydrolysis in water
1,COC(=O)C(C)Oc1ccc(Oc2ccc(Cl)cc2Cl)cc1 (stereo not drawn) [diclofop-methyl],undergoes hydrolysis more readily in an alkaline medium
2,CCOC(=O)[C@@H](C)Oc1ccc(Oc2cnc3cc(Cl)ccc3n2)cc1 [quizalofop-P-ethyl],hydrolysis occurring most rapidly when pH is in the alkaline range; also recorded: greater chemical stability in acid to neutral than in alkaline media
3,CCO/N=C(\CC)C1=C(O)CC(c2c(C)cc(C)cc2C)CC1=O (stereo not drawn) [tralkoxydim],especially unstable in an acid medium; also recorded: much more stable at pH 9 than at pH 5
